Article PMC1241435 (Environmental Health Perspectives, 2003)

Columns and labels:
[1] = molecular target: T1, FMO I (Homo sapiens, UniProt Q01740); test: sulfoxide formation by microsomes of cells expressing the recombinant enzyme; type: cell-based
T1 sequence (Q01740 2-532): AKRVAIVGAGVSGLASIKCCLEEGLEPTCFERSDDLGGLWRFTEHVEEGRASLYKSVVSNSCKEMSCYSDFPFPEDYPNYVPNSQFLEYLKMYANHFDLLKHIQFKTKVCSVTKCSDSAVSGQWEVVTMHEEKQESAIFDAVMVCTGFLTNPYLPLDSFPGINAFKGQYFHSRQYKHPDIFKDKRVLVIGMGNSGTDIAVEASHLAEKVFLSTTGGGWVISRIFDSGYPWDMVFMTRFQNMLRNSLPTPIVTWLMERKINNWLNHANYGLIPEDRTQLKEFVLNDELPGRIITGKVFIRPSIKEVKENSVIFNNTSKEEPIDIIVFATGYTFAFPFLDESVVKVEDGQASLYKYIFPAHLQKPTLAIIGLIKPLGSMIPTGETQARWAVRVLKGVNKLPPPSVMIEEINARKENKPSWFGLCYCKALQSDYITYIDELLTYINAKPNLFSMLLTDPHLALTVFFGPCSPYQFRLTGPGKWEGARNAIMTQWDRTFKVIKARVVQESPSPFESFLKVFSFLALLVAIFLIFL

[2] = molecular target: T2, CYP 1A1 (Homo sapiens, UniProt P04798); test: as above; type: cell-based
T2 sequence (P04798 1-512): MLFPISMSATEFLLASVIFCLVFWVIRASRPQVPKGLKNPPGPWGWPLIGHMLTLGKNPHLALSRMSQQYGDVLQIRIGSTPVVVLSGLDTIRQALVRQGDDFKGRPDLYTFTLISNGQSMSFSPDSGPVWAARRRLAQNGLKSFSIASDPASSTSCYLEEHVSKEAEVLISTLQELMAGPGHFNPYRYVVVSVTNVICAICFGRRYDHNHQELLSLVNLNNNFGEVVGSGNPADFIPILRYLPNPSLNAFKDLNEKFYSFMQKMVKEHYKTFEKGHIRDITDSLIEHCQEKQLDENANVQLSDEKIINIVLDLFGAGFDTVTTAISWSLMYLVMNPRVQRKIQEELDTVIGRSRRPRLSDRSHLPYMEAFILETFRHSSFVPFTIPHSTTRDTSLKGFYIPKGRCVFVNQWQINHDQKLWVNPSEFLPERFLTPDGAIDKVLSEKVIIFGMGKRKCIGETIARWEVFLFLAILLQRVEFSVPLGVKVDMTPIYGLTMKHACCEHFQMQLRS

In the case of COP(=S)(OC)Oc1ccc(SC)c(C)c1 [fenthion, O,O-dimethyl-O-(4-methylmercapto)-3-methylphenylthio-phosphate], the “sulfoxide formation by microsomes of cells expressing the recombinant enzyme” value [1] is reported as 62.4 nmol/min/mg protein and the “sulfoxide formation by microsomes of cells expressing the recombinant enzyme” value [2] is reported as 3.6 nmol/min/mg protein.
